Molecules are shown by their SMILES.

Take `CSCCc1nc(-c2cccc(Cl)c2)c(-c2ccnc(N)c2)s1`: the melting point – broadly, the temperature, or range, at which the solid turns liquid – was 96 to 97 °C.

`CSCc1nc(-c2cccc(Cl)c2)c(-c2ccnc(N)c2)s1` displayed a melting point of 111 to 112 °C.

On to `CC(F)(F)c1nc(-c2cccc(Cl)c2)c(-c2ccnc(N)c2)s1`, for which the melting point was in the range of 131 to 132 °C.

Take `CCC(=O)Nc1cc(-c2sc(C3CCNCC3)nc2-c2cccc(Cl)c2)ccn1.Cl.Cl`: the melting point fell in the range of 202 to 203 °C.

As to `Cc1cccc(-c2nc(NC(=O)NCCCl)sc2-c2ccnc(C)c2)c1`, the melting point lay in the range of 149 to 151 °C.

`CCc1nc(-c2cccc(C)c2)c(-c2ccnc(NC(=O)OC(C)(C)C)c2)s1` [Example 3, 5-[2-(tert-butoxycarbonylamino)-4-pyridyl]-2-ethyl-4-(3-methylphenyl)-1,3-thiazole] displayed a melting point of 162 to 163 °C.

Take `CCc1nc(-c2ccc(F)cc2)c(-c2ccnc(NC(C)=O)c2)s1` [Example 82-2, N-[4-[2-ethyl-4-(4-fluorophenyl)-1,3-thiazol-5-yl]-2-pyridyl]acetamide]: the melting point lay in the range of 190 to 191 °C.

Compound `CCc1nc(-c2cccc(C(F)(F)F)c2)c(-c2ccnc(NC(C)=O)c2)s1` [Example 82-3, N-[4-[2-ethyl-4-(3-trifluoromethylphenyl)-1,3-thiazol-5-yl]-2-pyridyl]acetamide] displayed a melting point of 146 to 147 °C.

As for `CCc1nc(-c2ccc(F)c(C)c2)c(-c2ccnc(NC(C)=O)c2)s1` [Example 82-4, N-[4-[2-ethyl-4-(4-fluoro-3-methylphenyl)-1,3-thiazol-5-yl]-2-pyridyl]acetamide], the melting point was in the range of 142 to 143 °C.

As for `CCc1nc(-c2cccc(F)c2)c(-c2ccnc(NC(C)=O)c2)s1` [Example 82-5, N-[4-[2-ethyl-4-(3-fluorophenyl)-1,3-thiazol-5-yl]-2-pyridyl]acetamide], the melting point lay within 141 to 142 °C.

As for `CCc1nc(-c2ccc(Cl)cc2)c(-c2ccnc(NC(C)=O)c2)s1` [Example 82-6, N-[4-[4-(4-chlorophenyl)-2-ethyl-1,3-thiazol-5-yl]-2-pyridyl]acetamide], the melting point fell in the range of 190 to 191 °C.

`CCc1cccc(-c2nc(CC)sc2-c2ccnc(NC(C)=O)c2)c1` [Example 82-7, N-[4-[2-ethyl-4-(3-ethylphenyl)-1,3-thiazol-5-yl]-2-pyridyl]acetamide] showed a melting point of 112 to 113 °C.

Compound `CCc1nc(-c2cccc(C(C)C)c2)c(-c2ccnc(NC(C)=O)c2)s1` [Example 82-8, N-[4-[2-ethyl-4-[3-(1-methylethyl)phenyl]-1,3thiazol-5-yl]-2-pyridyl]acetamide] gave a melting point of 116 to 117 °C.

As for `CCCc1cccc(-c2nc(CC)sc2-c2ccnc(NC(C)=O)c2)c1` [Example 82-9, N-[4-[2-ethyl-4-(3-propylphenyl)-1,3-thiazol-5-yl]-2-pyridyl]acetamide], the melting point was in the range of 121 to 122 °C.

On to `CC(=O)Nc1cc(-c2sc(C)nc2-c2cccc(C)c2)ccn1` [Example 82-10, N-[4-[2-methyl-4-(3-methylphenyl)-1,3-thiazol-5-yl]-2-pyridyl]acetamide], for which the melting point was in the range of 162 to 163 °C.

`CC(=O)Nc1cc(-c2scnc2-c2cccc(C)c2)ccn1` [Example 82-11, N-[4-[4-(3-methylphenyl)-1,3-thiazol-5-yl]-2-pyridyl]acetamide] registered a melting point of 149 to 150 °C.

`CSc1ccc(-c2nc(-c3cccc(C)c3)c(-c3ccnc(NC(C)=O)c3)s2)cc1` [Example 82-12, N-[4-[4-(3-methylphenyl)-2-[4-(methylthio)phenyl]-1,3-thiazol-5-yl]-2-pyridyl]acetamide] gave a melting point of 181 to 182 °C.

In turn, `CCC(=O)Nc1cc(-c2sc(CC)nc2-c2ccccc2)ccn1` [Example 84-1, N-[4-(2-ethyl-4-phenyl-1,3-thiazol-5-yl)-2-pyridyl]propionamide] showed a melting point of 139 to 140 °C.

For the compound `CCC(=O)Nc1cc(-c2sc(CC)nc2-c2ccc(F)cc2)ccn1` [Example 84-2, N-[4-[2-ethyl-4-(4-fluorophenyl)-1,3-thiazol-5-yl]-2-pyridyl]propionamide], the melting point fell in the range of 156 to 157 °C.

`CCC(=O)Nc1cc(-c2sc(CC)nc2-c2cccc(C(F)(F)F)c2)ccn1` [Example 84-3, N-[4-[2-ethyl-4-(3-trifluoromethylphenyl)-1,3-thiazol-5-yl]-2-pyridyl]propionamide] showed a melting point of 126 to 127 °C.

`CCC(=O)Nc1cc(-c2sc(CC)nc2-c2ccc(F)c(C)c2)ccn1` [Example 84-4, N-[4-[2-ethyl-4-(4-fluoro-3-methylphenyl)-1,3-thiazol-5-yl]-2-pyridyl]propionamide] had a melting point of 105 to 107 °C.

`CCC(=O)Nc1cc(-c2sc(CC)nc2-c2cccc(F)c2)ccn1` [Example 84-5, N-[4-[2-ethyl-4-(3-fluorophenyl)-1,3-thiazol-5-yl]-2-pyridyl]propionamide] registered a melting point of 121 to 122 °C.

`CCC(=O)Nc1cc(-c2sc(CC)nc2-c2ccc(Cl)cc2)ccn1` [Example 84-6, N-[4-[4-(4-chlorophenyl)-2-ethyl-1,3-thiazol-5-yl]-2-pyridyl]propionamide]: the melting point was in the range of 152 to 153 °C.

In the case of `CCC(=O)Nc1cc(-c2sc(CC)nc2-c2cccc(C(C)C)c2)ccn1` [Example 84-7, N-[4-[2-ethyl-4-[3-(1-methylethyl)phenyl]-1,3-thiazol-5-yl]-2-pyridyl]propionamide], the melting point lay in the range of 93 to 94 °C.

On to `CCCc1cccc(-c2nc(CC)sc2-c2ccnc(NC(=O)CC)c2)c1` [Example 84-8, N-[4-[2-ethyl-4-(3-propylphenyl)-1,3-thiazol-5-yl]-2-pyridyl]propionamide], for which the melting point was 124 to 125 °C.

Turning to `CCC(=O)Nc1cc(-c2sc(-c3ccc(SC)cc3)nc2-c2cccc(C)c2)ccn1` [Example 84-9, N-[4-[4-(3-methylphenyl)-2-[4-(methylthio)phenyl]-1,3-thiazol-5-yl]-2-pyridyl]propionamide], the melting point was in the range of 171 to 172 °C.

On to `CCCC(=O)Nc1cc(-c2sc(CC)nc2-c2cccc(Cl)c2)ccn1` [Example 86, N-[4-[4-(3-chlorophenyl)-2-ethyl-1,3-thiazol-5-yl]-2-pyridyl]butyramide], for which the melting point lay within 119 to 120 °C.

In the case of `CCCCC(=O)Nc1cc(-c2sc(CC)nc2-c2cccc(C)c2)ccn1` [Example 87-1, N-[4-[2-ethyl-4-(3-methylphenyl)-1,3-thiazol-5-yl]-2-pyridyl]valeramide], the melting point was in the range of 81 to 82 °C.

The compound `CCCCCC(=O)Nc1cc(-c2sc(CC)nc2-c2cccc(C)c2)ccn1` [Example 87-2, N-[4-[2-ethyl-4-(3-methylphenyl)-1,3-thiazol-5-yl]-2-pyridyl]hexanamide] yielded a melting point of 84 to 85 °C.

For `CCCCC(=O)Nc1cc(-c2sc(CC)nc2-c2cccc(Cl)c2)ccn1` [Example 88-1, N-[4-[4-(3-chlorophenyl)-2-ethyl-1,3-thiazol-5-yl]-2-pyridyl]valeramide], the melting point lay in the range of 109 to 110 °C.

Compound `CCCCCC(=O)Nc1cc(-c2sc(CC)nc2-c2cccc(Cl)c2)ccn1` [Example 88-2, N-[4-[4-(3-chlorophenyl)-2-ethyl-1,3-thiazol-5-yl]-2-pyridyl]hexanamide] had a melting point of 114 to 115 °C.

For the origin of these results see patent US7495018B2, “Substituted 1,3-thiazole compounds, their production and use” (Takeda Pharmaceutical Company Limited, priority 2000, dated 2009).
